The text below walks through data of patent US20260373266A1, “PROTEIN DEGRADERS AND USES THEREOF” (KYMERA THERAPEUTICS, INC., priority 2022, published 2026).

The target in the assay is T1, DCAF1 WD40 domain (residues 1077-1390) (Homo sapiens, UniProt Q9Y4B6).
T1 construct: DCAF1 WD40 domain (residues 1077-1390)
Description: DCAF1 binding assay by SPR (Biacore 8K+), DCAF1-3 KD. Conditions: 25 °C, read-out: DCAF1-3 SPR (KD). On the technique in general: In SPR one partner is held on a chip, and binding of the other changes the refractive index at the surface.

Bounds are passed on as bounds.

T1 sequence (Q9Y4B6 1077-1390): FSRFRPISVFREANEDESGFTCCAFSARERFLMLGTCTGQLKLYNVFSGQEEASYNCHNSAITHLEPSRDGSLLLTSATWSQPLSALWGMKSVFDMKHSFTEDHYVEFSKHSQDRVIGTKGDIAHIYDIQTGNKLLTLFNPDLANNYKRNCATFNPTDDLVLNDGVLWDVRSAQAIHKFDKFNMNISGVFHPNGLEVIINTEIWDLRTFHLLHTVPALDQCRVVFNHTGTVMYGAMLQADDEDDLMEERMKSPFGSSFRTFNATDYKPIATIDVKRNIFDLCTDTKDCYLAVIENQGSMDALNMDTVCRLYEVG

Turning to `Cc1c(F)c(Cl)cc(F)c1-c1[nH]ncc1C(=O)N[C@@H](CC(N)=O)c1cccc(Cl)c1` [I-1043], the Kd was < 10 µM.
As to `N#Cc1cc2c(nc1N1CCC[C@@H](Nc3cc(N4CCOCC4)ccn3)C1)CCC2` [I-427], the equilibrium dissociation constant (Kd) is > 200 µM.
Then `Cc1cccc(F)c1-c1c(C(=O)N[C@@H](CC(N)=O)c2cccc(Cl)c2)c[nH]c1C(=O)c1ccc(N2CCCCC2)cc1` [I-801], with < 10 µM; and `C=CC(=O)Nc1ccc(-c2[nH]ncc2C(=O)N[C@H](CC(N)=O)c2cccc(Cl)c2)cc1` [I-536], with > 200 µM; and `Fc1cccc(N2CC[C@@H]3CCCc4ncc(N5CCOCC5)cc4N[C@H]3C2)c1` [I-245], with > 200 µM.
As to `C=CC(=O)N1CCC(c2n[nH]cc2C(=O)N[C@@H](CC(N)=O)c2cccc(Cl)c2)CC1` [I-452], the Kd was > 200 µM.
For the compound `NC(=O)C[C@H](NC(=O)c1cn[nH]c1-c1ccccc1F)c1ccccn1` [I-340], the Kd was > 200 µM.
Consider `c1ccc2c(N3CCC[C@@H](Nc4cc(N5CCOCC5)ncn4)C3)cncc2c1` [I-391], for which the equilibrium dissociation constant (Kd) is > 200 µM.
For `O=C(Nc1nc2c(s1)CCCC2)[C@@H]1CCCN(c2cccc(F)c2)C1` [I-669], the equilibrium dissociation constant (Kd) was > 200 µM.
Turning to `C[C@@H](C(N)=O)[C@H](NC(=O)c1c[nH]nc1-c1ccccc1F)c1cccc(Cl)c1` [I-211], the equilibrium dissociation constant (Kd) was > 200 µM.
In the case of `OC[C@H]1C[C@H](Nc2cc(N3CCCCC3)ccn2)CN(c2cccc(F)c2)C1` [I-1012], the Kd is 10 to 100 µM.
Consider `Cn1cnc(C[C@H](O)C(=O)N[C@@H](CC(N)=O)c2cccc(Cl)c2)c1` [I-443], for which the dissociation constant Kd is > 200 µM.
Then `Oc1ccc(N2CCC[C@@H]3[C@H]2CCN3c2cc(N3CC4CC(C4)C3)ccn2)cc1` [I-709], with 10 to 100 µM.
`Fc1cccc(N2CCC[C@@H](Nc3cc(N4C5CCCC4C5)ccn3)C2)c1` [I-616]: the dissociation constant Kd was < 10 µM.
As to `C=CC(=O)N(C)[C@H]1C[C@H](N(C)c2ccnc(N[C@@H]3CCCN(c4cccc(F)c4)C3)c2)C1` [I-480], the dissociation constant Kd is > 200 µM.
As for `O=C(O)c1cc2c(N3CCC[C@@H](Nc4cc(N5CCOCC5)ccn4)C3)cccc2s1` [I-855], the Kd is > 200 µM.
For `NC(=O)C[C@H](NC(=O)c1c[nH]c(C(N)=O)c1-c1ccccc1F)c1cccc(Cl)c1` [I-599], the Kd is < 10 µM.
On to `OC[C@@H]1CC[C@H](Nc2cc(N3CCCCC3)ccn2)CN1c1cccc(F)c1` [I-1007], for which the Kd was < 10 µM.
On to `CN(C)c1ccnc(N[C@@H]2CCCN(c3cccc(F)c3)C2)c1` [I-498], for which the Kd lay within 10 to 100 µM.
As to `O[C@@]1(c2ccccc2)CCC[C@@H](Nc2cc(N3CCCCC3)ccn2)C1` [I-929], the Kd was in the range of 10 to 100 µM.
`C=CC(=O)N1CCC1C(=O)N1CCN(c2ccnc(N[C@@H]3CCCN(c4cccc(F)c4)C3)c2)CC1` (stereo partly shown) [I-464]: the Kd was > 200 µM.
In the case of `c1ccc([C@H]2CCC[C@@H](Nc3cc(N4CCCCC4)ccn3)C2)cc1` [I-754], the Kd lay within 10 to 100 µM.
As for `Fc1cccc(N2CCC[C@@H]3[C@H]2CCCN3c2cc(N3CCOCC3)ccn2)c1` [I-190], the dissociation constant Kd was > 200 µM.
As to `Fc1ccc(N2CCC[C@@H](Nc3cc(N4CCOCC4)ncn3)C2)cc1` [I-7], the Kd was in the range of 100 to 200 µM.
For the compound `CCc1cccc([C@H](CC(N)=O)NC(=O)c2cn[nH]c2-c2ccccc2F)c1` [I-638], the Kd is > 200 µM.
Take `c1cc(N2CCOCC2)cc(NC2CCCN(c3cnn[nH]3)C2)n1` (stereo not shown) [I-486]: the equilibrium dissociation constant (Kd) was > 200 µM.
Then `Oc1ccc2nc(N3CCC[C@@H](Nc4cc(N5CCOCC5)ccn4)C3)ccc2c1` [I-780], with 10 to 100 µM; and `Cc1c(F)ccc(F)c1-c1c(C(=O)N[C@@H](CC(N)=O)c2cccc(Cl)c2)c[nH]c1C(=O)COCCOCCOCCOCCOCCN` [I-809], with < 10 µM.
Regarding `Cc1cnc(N2CCOCC2)cc1N[C@@H]1CCCN(c2cccc(F)c2)C1` [I-404], the equilibrium dissociation constant (Kd) is > 200 µM.
With `COc1cccc(C(=O)c2[nH]cc(C(=O)N[C@@H](CC(N)=O)c3cccc(Cl)c3)c2-c2c(F)ccc(F)c2C)c1` [I-795], the dissociation constant Kd is < 10 µM.
Then `O=C1C[C@H]([C@@H](NC(=O)c2cn[nH]c2-c2ccccc2F)c2cccc(Cl)c2)CN1` [I-559], with 100 to 200 µM.

The term Kd denotes the concentration at which binding is half-saturated.
